Assay results published in patent US20230091047A1 (priority 2019, published 2023).
Read-outs that look alike come from different tables or passages of the source.

Experiments:
[1] = test system: HBV (HepG2.117 cell line, inducibly HBV producing); experiment: Anti-HBV activity: intracellular HBV DNA by real-time PCR in HepG2.117 cells after 3 days of treatment; type: cell-based, hepatitis B virus
Method in brief: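 Read-out is intracellular HBV DNA, measured by real-time PCR using HBV-specific primers and probe. Cells were stable, inducible HBV-producing HepG2.117 (Tet-off). Serially diluted compound was applied for 3 days after replication was induced.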

HepG2 cells = experiment: in vitro; type: cell-based
Method in brief: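 Luminescent ATP quantitation served as the viability endpoint following a 3- or 4-day incubation with test compounds.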

[2] = HepG2.117 cells, 3 days of treatment, intracellular HBV DNA by real-time PCR; mean value; read-out: EC50 (μM, mean value)
[3] = 3-days incubation (unmarked values), HepG2 or HepG2.117 cells, ATPlite, mean value, read-out: CC50 (μM, mean value)
[4] = HepG2.117 cells, intracellular HBV DNA by real-time PCR, 3 days of treatment, mean value; read-out: EC50 (μM, mean value)
[5] = HepG2 or HepG2.117 cells, ATPlite, 3-days incubation (not marked with *), mean value, read-out: CC50 (μM, mean value)

| Structure (SMILES) | EC50 [1, 2] | EC50 [1, 4] | CC50 (HepG2 cells; [5]) | also measured |
| --- | --- | --- | --- | --- |
| CNC(=O)c1ccc(-n2c(NC(C)C)nc3c(c2=O)C[C@@H](C)N(C(=O)c2ccc(Cl)c(Cl)c2)C3)c(Cl)c1 (atropisomer, axis not shown) [Compound C293b, 3-chloro-4-[(6R)-7-(3,4-dichlorobenzoyl)-6-methyl-4-oxo-2-[(propan-2-yl)amino]-5,6,7,8-tetrahydropyrido[3,4-d]pyrimidin-3(4H)-yl]-N-methylbenzamide] | 0.06 µM | – | – | CC50 (HepG2 cells; [3]): 27.1 µM |
| CNC(=O)c1ccc(-n2c(N[C@@H](C)C3CC3)nc3c(c2=O)C[C@@H](C)N(C(=O)c2ccc(Cl)c(Cl)c2)C3)c(Cl)c1 [Compound C387] | – | 0.06 µM | 38 µM | – |
| CC(C)Nc1nc2c(c(=O)n1-c1ccc(-c3ncc[nH]3)cc1Cl)C[C@@H](C)N(C(=O)c1ccc(Cl)c(Cl)c1)C2 (single isomer, unassigned) [Compound C393b] | – | 0.24 µM | 31.7 µM | – |
| CNC(=O)c1ccc(-n2c(NC(C)C)nc3c(c2=O)C[C@@H](C)N(C(=O)c2ccc(Cl)c(Cl)c2)C3)c(C(C)C)c1 (single isomer, unassigned) [Compound C420b] | – | 0.35 µM | 23.5 µM | – |
| COc1ccccc1-n1c(N[C@H](C)C(F)(F)F)nc2c(c1=O)CCN(C(=O)c1ccc(Cl)c(Cl)c1)C2 (single isomer, unassigned) [Compound C101b] | 9.59 µM | – | – | CC50 (HepG2 cells; [3]): 33.2 µM |
| CCc1cc(C(=O)NC)ccc1-n1c(NC(C)C)nc2c(c1=O)C[C@@H](C)N(C(=O)c1ccc(Cl)c(Cl)c1)C2 (single isomer, unassigned) [Compound C383b] | – | 0.17 µM | > 45 µM | – |
| CNC(=O)c1ccc(-n2c(NC(C)C)nc3c(c2=O)C[C@@H](C)N(C(=O)c2ccc(Cl)c(C(F)(F)F)c2)C3)c(Cl)c1 (single isomer, unassigned) [Compound C639b] | – | 0.02 µM | 25.4 µM | – |
| COc1ccc([C@H](C)Nc2nc3c(c(=O)n2-c2ccc(NC(C)=O)cc2)C[C@@H](C)N(C(=O)c2ccc(Cl)c(Cl)c2)C3)cc1 (single isomer, unassigned) [Compound C410a] | – | 0.95 µM | > 50 µM | – |
| COc1ccccc1-n1c(NCc2ccc3c(c2)OCO3)nc2c(c1=O)CCN(C(=O)c1ccc(Cl)c(Cl)c1)C2 (single isomer, unassigned) [Compound C26b, 2-{[(2H-1,3-benzodioxol-5-yl)methyl]amino}-7-(3,4-dichlorobenzoyl)-3-(2-methoxyphenyl)-5,6,7,8-tetrahydropyrido[3,4-d]pyrimidin-4(3H)-one] | 1.04 µM | – | – | CC50 (HepG2 cells; [3]): > 50 µM |
| CNC(=O)c1ccc(-n2c(N[C@H](C)c3ccc(OC(F)F)cc3)nc3c(c2=O)C[C@@H](C)N(C(=O)c2ccc(Cl)c(Cl)c2)C3)cc1 [Compound C411b] | – | 0.07 µM | 42.1 µM | – |
| COc1ccccc1-n1c(NCc2ccc3c(c2)OCO3)nc2c(c1=O)CCN(C(=O)c1ccc(Cl)c(Cl)c1)C2 (single isomer, unassigned) [Compound C26a, 2-{[(2H-1,3-benzodioxol-5-yl)methyl]amino}-7-(3,4-dichlorobenzoyl)-3-(2-methoxyphenyl)-5,6,7,8-tetrahydropyrido[3,4-d]pyrimidin-4(3H)-one] | 1.42 µM | – | – | CC50 (HepG2 cells; [3]): > 50 µM |
| CNC(=O)c1ccc(-n2c(NC(C)C)nc3c(c2=O)C[C@@H](C)N(C(=O)c2ccc(Cl)c(C(F)(F)F)c2)C3)c(OC)c1 (single isomer, unassigned) [Compound C643b] | – | 0.05 µM | > 50 µM | – |
| CNC(=O)c1ccc(-n2c(NC(C)C)nc3c(c2=O)C[C@@H](C)N(C(=O)c2ccc(Cl)c(C(F)F)c2)C3)c(Cl)c1 (single isomer, unassigned) [Compound C685b] | – | 0.03 µM | > 50 µM | – |
| CNC(=O)[C@H]1CC[C@@H](n2c(N[C@H](C)c3ccc(OC(F)(F)F)cc3)nc3c(c2=O)C[C@@H](C)N(C(=O)c2ccc(Cl)c(Cl)c2)C3)CC1 [Compound C636, (1R,4s)-4-((R)-7-(3,4-dichlorobenzoyl)-6-methyl-4-oxo-2-(((S)-1-(4-(trifluoromethoxy)phenyl)ethyl)amino)-5,6,7,8-tetrahydropyrido[3,4-d]pyrimidin-3(4H)-yl)-N-methylcyclohexane-1-carboxamide] | – | 0.23 µM | – | CC50 (HepG2 cells): > 35 µM |
| Cc1c[nH]c(-c2ccc(-n3c(NC(C)C)nc4c(c3=O)C[C@@H](C)N(C(=O)c3ccc(Cl)c(Cl)c3)C4)c(Cl)c2)n1 (single isomer, unassigned) [Compound C455a] | – | – | 17.6 µM | EC50 ([1]; Hepatitis B virus, HepG2.117, 72 h, HepG2.117 cells, intracellular HBV DNA by real-time PCR, 3 days of treatment, mean value; read-out: EC50 (μM, mean value)): 0.05 µM |
| CNC(=O)c1ccc(-n2c(N3CC4CC3C4)nc3c(c2=O)C[C@@H](C)N(C(=O)c2ccc(Cl)c(C(F)(F)F)c2)C3)c(Cl)c1 (single isomer, unassigned) [Compound C701b] | 0.03 µM | – | – | CC50 (HepG2 cells; 3-days incubation (unmarked values), HepG2 or HepG2.117 cells, ATPlite viability, mean value, read-out: CC50 (μM, mean value)): 25.4 µM |
| CNC(=O)c1ccc(-n2c(NC(C)C)nc3c(c2=O)C[C@@H](C)N(C(=O)c2ccc(Cl)c(Cl)c2)C3)c(C(F)(F)F)c1 (single isomer, unassigned) [Compound C340b] | 0.39 µM | – | – | CC50 (HepG2 cells; [3]): 29.8 µM |

| Structure (SMILES) | EC50 [1, 2] | EC50 [1, 4] | CC50 (HepG2 cells; [5]) | also measured |
| --- | --- | --- | --- | --- |
| Cc1cc(-n2cccn2)ccc1-n1c(NC(C)C)nc2c(c1=O)C[C@@H](C)N(C(=O)c1ccc(Cl)c(Cl)c1)C2 (single isomer, unassigned) [Compound C308b] | 0.16 µM | – | – | CC50 (HepG2 cells; [3]): > 50 µM |
| CNC(=O)c1ccc(-n2c(N[C@@H](C)c3ccccc3)nc3c(c2=O)C[C@@H](C)N(C(=O)c2ccc(Cl)c(Cl)c2)C3)c(Cl)c1 [Compound C386] | – | 0.12 µM | > 50 µM | – |
| CNC(=O)c1ccc(-n2c(NC(C)C)nc3c(c2=O)C[C@@H](C)N(C(=O)c2ccc(Cl)c(C(F)(F)F)c2)C3)c(C2CC2)c1 (single isomer, unassigned) [Compound C661a] | – | 0.07 µM | > 50 µM | – |
| Cc1cc(-c2ncc[nH]2)ccc1-n1c(NC(C)C)nc2c(c1=O)C[C@@H](C)N(C(=O)c1ccc(Cl)c(Cl)c1)C2 (single isomer, unassigned) [Compound C399b] | – | 0.16 µM | 27 µM | – |
| CNC(=O)c1ccc(-n2c(NC(C)C)nc3c(c2=O)C[C@@H](C)N(C(=O)c2ccc(Cl)c(Cl)c2)C3)c(Cl)c1 (single isomer, unassigned) [Compound C293a] | 0.06 µM | – | – | CC50 (HepG2 cells; [3]): 33.4 µM |
| CNC(=O)c1ccc(-n2c(NC(C)C)nc3c(c2=O)C[C@@H](C)N(C(=O)c2ccc(Cl)c(Cl)c2)C3)c(C)c1 [Compound C300b, 4-[(6R)-7-(3,4-dichlorobenzoyl)-6-methyl-4-oxo-2-[(propan-2-yl)amino]-5,6,7,8-tetrahydropyrido[3,4-d]pyrimidin-3(4H)-yl]-N,3-dimethylbenzamide] | 0.09 µM | – | – | CC50 (HepG2 cells; [3]): > 50 µM |
| CNc1noc2cc(-n3c(NC(C)C)nc4c(c3=O)C[C@@H](C)N(C(=O)c3ccc(Cl)c(Cl)c3)C4)c(C)cc12 (single isomer, unassigned) [Compound C447b] | – | 0.05 µM | > 50 µM | – |
| COc1ccc(CNc2nc3c(c(=O)n2-c2ccccc2OC)C[C@H](C)N(C(=O)c2ccc(Cl)c(Cl)c2)C3)cc1 (single isomer, unassigned) [Compound C36Ba] | 1.21 µM | – | – | CC50 (HepG2 cells; [3]): > 50 µM |
| CNC(=O)c1ccc(-n2c(N[C@@H](C)C3CC3)nc3c(c2=O)C[C@@H](C)N(C(=O)c2ccc(Cl)c(C(F)(F)F)c2)C3)c(Cl)c1 (single isomer, unassigned) [Compound C676b] | – | 0.02 µM | 28.7 µM | – |
| Cc1cc(-c2ncc[nH]2)ccc1-n1c(NC(C)C)nc2c(c1=O)C[C@@H](C)N(C(=O)c1ccc(Cl)c(Cl)c1)C2 (single isomer, unassigned) [Compound C399a] | – | 0.14 µM | 27.7 µM | – |
| CNc1noc2cc(-n3c(NC(C)C)nc4c(c3=O)C[C@@H](C)N(C(=O)c3ccc(Cl)c(Cl)c3)C4)c(C)cc12 (single isomer, unassigned) [Compound C447a] | – | 0.23 µM | > 50 µM | – |
| CNC(=O)c1ccc(-n2c(NC(C)C)nc3c(c2=O)C[C@@H](C)N(C(=O)c2ccc(Cl)c(Cl)c2)C3)c(C(C)C)c1 (single isomer, unassigned) [Compound C420a] | – | 0.72 µM | 21.7 µM | – |
| CNC(=O)c1ccc(-n2c(NC(C)C)nc3c(c2=O)C[C@@H](C)N(C(=O)c2ccc(Cl)c(C(F)(F)F)c2)C3)c(C2CC2)c1 (single isomer, unassigned) [Compound C661b] | – | 0.06 µM | 25.4 µM | – |
| Cc1c[nH]c(-c2ccc(-n3c(NC(C)C)nc4c(c3=O)C[C@@H](C)N(C(=O)c3ccc(Cl)c(Cl)c3)C4)c(Cl)c2)n1 (single isomer, unassigned) [Compound C455b] | – | 0.1 µM | > 50 µM | – |
| CC(C)Nc1nc2c(c(=O)n1-c1ccc(-c3ncc[nH]3)cc1Cl)C[C@@H](C)N(C(=O)c1ccc(Cl)c(Cl)c1)C2 (single isomer, unassigned) [Compound C393a] | – | 0.12 µM | 14.1 µM | – |
| CC(C)Nc1nc2c(c(=O)n1-c1ccc(-c3nccn3C)cc1Cl)C[C@@H](C)N(C(=O)c1ccc(Cl)c(Cl)c1)C2 (single isomer, unassigned) [Compound C392b] | – | 0.12 µM | 26.7 µM | – |
